Measurements: US7217688B2, “Methods and compositions for derepression of IAP-inhibited caspase” (The Burnham Institute, priority 2005, dated 2007)
pIC50: −log10 of the molar value. Square brackets hold non-standard residues; d marks the D form. Side chains are listed from the residue outwards. Peptide text beside a SMILES is read from it. * marks the point of attachment. X1 = CCN(CC)c1ccc2c(-c3ccc(S(=O)(=O)*)cc3S(=O)(=O)O)c3ccc(=[N+](CC)CC)cc-3oc2c1; d2Nal = N[C@H](Cc1ccc2ccccc2c1)C(=O)O; Ahx = NCCCCCC(=O)O

What was measured:
caspase-3 = target: T1, caspase-3 (Homo sapiens, UniProt P42574); assay: caspase-3 activity without XIAP (control arm of derepression assay); format: biochemical; conditions: TPI 1239 library; ratio, no XIAP
T1 construct: made in house; host or cells: bacteria
Description: (§1) Caspase activity was assayed by release of 7-amino-4-trifluoromethyl-coumarin (AFC) from Ac-DEVD-AFC synthetic peptide using a Molecular Devices Spectromax 340 (see Zhou et al., J. Biol. Chem. 272:7797–7800 (1997)). […] The ratio of Vmax for hydrolysis of Ac-DEVD-AFC in the presence and absence of the candidate mixture was calculated and used to identify those that contain an agent that derepresses an IAP-inhibited caspase.
(§2) Screening of each mixture from the DCR390, TPI 1239 or TPI 1328 library, respectively, using the above described assay was carried out as follows. Each mixture was aliquoted in a 25 microliter volume and in duplicate to a well of a 96 well microtiter plate. […] Fluorescence of liberated AFC was immediately detected from each well for 30 minutes at 30 second intervals. The Vmax for hydrolysis of AC-DEVD-AFC from each well was measured using the softmax software package. Results of the screen for the DCR390 library are shown in Table I. Sets of mixtures having the same position fixed with different respective amino acids are arranged in 6 sections identified with the position number. […] The mixture in each section are arranged in descending order according to apparent velocity in the second column.

XIAP-inhibited caspase-3 = target: T2, XIAP-inhibited caspase-3 (Homo sapiens, UniProt P98170); assay: caspase derepression assay (XIAP-inhibited caspase-3, Ac-DEVD-AFC hydrolysis); format: biochemical; conditions: for activity in the derepression assay using full length XIAP: active / inactive
T2 construct: in the derepression assay using full length XIAP; made in house; host or cells: bacteria
Description: as §1, §2
Briefly, recombinant proteins were produced in bacteria and purified as described, for example, in Deveraux et al., Nature 388:300–304(1997). […] Generation of fluorogenic AFC (7-amino-4-trifluoromethyl coumarin) product was measured with a spectrofluorometric plate reader in kinetic mode for 30 minutes at 37° C. using excitation and emission wavelengths of 405 nm and 510 nm, respectively. […] Control reactions lacked XIAP, and all assays were conducted in the linear range of substrate hydrolysis to avoid substrate depletion artifacts.

[1] = system: tumor cells with antigen-specific T cells; assay: CTL-mediated lysis (51Cr release); format: cell-based; conditions: 10 μM, 4 hours
Description: After 4 hours, ^51Cr release was measured. Data shown in FIG. 39 are expressed as a percentage of total release induced by detergent lysis, and data represent mean±standard deviation of duplicate determinations.

[2] = system: U937 leukemia cells over-expressing XIAP; assay: U937-Neo versus U937-XIAP cell death (Annexin V); format: cell-based; conditions: 5 or 8 μM, 20 hours
Description: After incubation, cells were washed, stained with FITC-conjugated Annexin V antibody and propidium iodide, and fluorescence measured by flow cytometry as described in Example XI.
Equal amounts of protein were subjected to SDS-PAGE (4–20% gradient gels from ISC BioExpress, Kaysville, Utah.), followed by transfer to nitrocellulose membranes. […] Secondary antibodies consisted of horseradish peroxidase (HRP)-conjugated goat anti-mouse IgG (Bio-Rad, Hercules, Calif.). Detection was performed by the enhanced chemiluminescence (ECL) method. […] Lysates were prepared from the cells, normalized for total protein content and analyzed by SDS-PAGE immunoblotting using antibodies specific for XIAP, caspase-3, and β-actin.

[3] = system: PPC1 prostate cancer cells; assay: PPC1 tumor xenograft; format: in vivo, Balb/C nu-/nu- mice; conditions: 30 mg/kg i.p. for 2 or 3 days
Source text: Similar data was obtained using TPI 1396-22 (see FIG. 33a and 33b). […] In FIG. 33b, the mice were sacrificed at day 19 and the tumors excised and weighed.

[4] = system: PC-3 and LNCaP prostate cancer cell lines; assay: clonogenic survival (colony formation) assay; format: cell-based; conditions: 10 μM
Description: In addition to short-term cytotoxicity assays, selected polyphenylurea compounds were tested for effects on clonogenic survival of cancer cells in colony formation assays, which can be considered a more stringent test of anticancer activity.

[5] = system: mouse embryo fibroblasts (MEFs), human prostate epithelial cells, peripheral blood lymphocytes (PBLs); assay: normal cell viability (annexin-V, 2 days); format: cell-based; parameters: dose or concentration left out as unconfirmed
Description: After 2 days, cell viability was assessed by annexin-V staining.

[6] = system: Du145 prostate cancer cells; assay: sensitization to anticancer drugs (MTT assay); format: cell-based; conditions: 10 μM, 48 hours
Description: The percentage of viable cells relative to control was determined using a MTT (3-(4,5-dimethylthiazolyl-2)-2,5-diphenyltetrazolium bromide) assay which is commercially available (Sigma). […] Similar results were obtained for PPC1 (FIG. 31b) and PC3 (FIG. 31c) prostate cancer cells treated with VP16, DOX, or TAXOL, and for H460 (FIG. 31d) lung cancer cells treated with VP16 or DOX.

[7] = system: normal bone marrow mononuclear cells; assay: normal bone marrow cell toxicity (Annexin V); format: cell-based; conditions: 5 μM, 20 hours
Description: After incubation, cells were washed, stained with FITC-conjugated Annexin V antibody and propidium iodide, and fluorescence measured by flow cytometry as described above.

Jurkat leukemia cells = assay: Jurkat cell death (Annexin V / propidium iodide flow cytometry); format: cell-based
Description: The following assay was used to test the ability of individual compounds from the TPI 1396 and TPI 1391 libraries to induce apoptosis of cultured tumor cell lines. Each of the compounds listed in Table IX was individually added to Jurkat leukemia cells (6.25×10^5 cells/mL) in RPMI containing 2.5% FBS at various concentrations for 20 hours. After incubation, cells were washed and stained with FITC-conjugated Annexin V antibody and propidium iodide (Biovision; Mountain View, Calif.). Cells were incubated for 20 minutes at room temperature in the dark and fluorescence was measured by flow cytometry (FACScan, Immunocytometry system; Becton-Dickinson; San Jose, Calif.). Cells staining positive for Annexin V were deemed non-viable.

HeLa cells = assay: apoptosis of transfected HeLa cells (Annexin V); format: cell-based; conditions: 5 μM, 20 hours
Description: In addition to transfecting the cells with full-length XIAP, analogous assays were performed with HeLa cells transfected with plasmids over-expressing various XIAP mutants. […] The mutant was produced by site-directed mutagenesis to modify positions 148, 219, 223, 314 and 323 to contain alanine. HeLa cells were also transiently transfected with plasmids encoding Bcl-XL, an anti-apoptotic protein that operates upstream of caspases to suppress Cytochrome C release from mitochondria. HeLa cells (2.5×10^5) were seeded onto six well plates in 2 mL DMEM H21 with 5% FBS. After 24 hrs, cells were transfected (Gene Porter) with plasmids. […] Both floating and adherent cells were then recovered from cultures, washed, and apoptosis was determined by Annexin V staining using flow cytometry.
Bcl-XL over-expression did afford resistance to traditional anticancer drugs such as etoposide and CrmA (a caspase-8 inhibitor), and protected cells from apoptosis induced by TRAIL, confirming that these anti-apoptotic proteins were functional in these experiments.

Jurkat cells = assay: caspase-3 and caspase-7 activity in whole Jurkat cells; format: cell-based; conditions: 8 μM, 20 hours
[8] = system: PPC1, ALVA31, DU145 and HeLa cells; assay: sensitization to TRAIL-induced apoptosis; format: cell-based; conditions: 1 µM
Description: Similar tests of the effects of polyphenyl urea compounds on apoptosis induction by the biological agent TRAIL, an apoptosis inducing member of the Tumor Necrosis Factor (TNF) family were also performed.

[9] = system: HCT-116 colon cancer cells; assay: HCT-116 tumor xenograft; format: in vivo, Balb/C nu-/nu- mice; conditions: 30 mg/kg i.p. on days 6, 7 and 8
Description: Additional experiments were performed using a different tumor xenograft model. HCT-116 colon cancer cells (2.5 million) were injected subcutaneously in the flanks of female Balb/C nu−/nu− mice. […] Tumor volume was measured by external calipers at least twice weekly for 19 days (see FIG. 32c). On day 19, the mice were sacrificed and the tumors were excised and weighed.

[10] = target: XIAP binding to the SMAC peptide (Homo sapiens, UniProt P98170); assay: SMAC competition / SMAC binding assay (biotinylated SMAC 7-mer, GST-XIAP)
Description: Peptide compounds containing unnatural amino acids in the 792 series, 792-33 and 792-35 (see FIG. 12 and 20 and Example XI), and an active compound in the TPI 1332 series, TPI 1332-69, were tested for binding activity in the SMAC binding assay as described above in Example X. For this assay, biotinylated SMAC 7-mer peptide (50 ng) was bound to 96 well plates coated with NeutrAvidin (Pierce, Rockford, Ill.) at 1 mg/ml in 100 μl per well of 50 mM HEPES pH 7.4, 100 mM NaCl, 1 mM EDTA, 10% sucrose, 0.1% CHAPS, 10 mM DTT.

His-BIR2 of XIAP = assay: rhodamine fluorescence polarization competitive binding assay; conditions: titrated with TPI 1396-11; labeled compound 2.4 μM, His-BIR2 79 μM; read-out: IC50 of the labeled candidate compound
Description: In a second assay, competitive binding of candidate derepressors of IAP inhibited caspase was measured by a fluorescence polarization procedure. Fixed quantities of rhodamine-labeled candidate compound and IAP fragment were titrated against varying concentrations of a known IAP-binding compound. […] Polarization (millipolars or mP) was plotted against log concentration (log []) of the known IAP-binding compound. A plot of mP versus log concentration of the IAP-binding compound was then used to calculate the binding constant for the candidate compound-the IAP fragment pair.
Plates were incubated for one hour at room temperature, after which polarization of rhodamine was read in an LJL Analyst HT® multimode reader with excitation at 530 nm and emission at 580 nm.

stability in human serum = format: in vitro ADME; conditions: expected
[11] = system: NCI panel of 60 tumor cell lines; assay: NCI panel of 60 tumor cell lines, protein-based colorimetric assay; parameters: species or system human; conditions: 48 hours
Description: Selected polyphenylurea compounds were tested on the National Cancer Institute (NCI) panel of 60 tumor cell lines (see FIG. 28a and FIG. 29).

tumor tissue = assay: in vivo caspase activation in tumors (immunoblot, immunohistochemistry); parameters: species or system Balb/c mice; conditions: 30 mg/kg i.p. for 3 successive days
[12] = mouse, in vivo
Description: Selected polyphenylurea compounds were tested for anti-tumor activity in vivo, using human tumor xenografts grown in immunocompromised mice. First, it was determined what doses of polyphenylurea compounds were tolerated by mice. […] For tumor xenograft studies, PPC1 prostate cancer cells (2.5 million) were injected subcutaneously into the flanks of 8 male Balb/C nu−/nu− mice. […] Tumor growth was monitored at least twice weekly by external calipers (see FIG. 32b). At 24 days after compound injections, mice were sacrificed and tumors were excised and weighed (see FIG. 32b, inset).
Sera were assayed for BUN, bilirubin, ALT and AST.

T2 sequence (P98170 whole entry): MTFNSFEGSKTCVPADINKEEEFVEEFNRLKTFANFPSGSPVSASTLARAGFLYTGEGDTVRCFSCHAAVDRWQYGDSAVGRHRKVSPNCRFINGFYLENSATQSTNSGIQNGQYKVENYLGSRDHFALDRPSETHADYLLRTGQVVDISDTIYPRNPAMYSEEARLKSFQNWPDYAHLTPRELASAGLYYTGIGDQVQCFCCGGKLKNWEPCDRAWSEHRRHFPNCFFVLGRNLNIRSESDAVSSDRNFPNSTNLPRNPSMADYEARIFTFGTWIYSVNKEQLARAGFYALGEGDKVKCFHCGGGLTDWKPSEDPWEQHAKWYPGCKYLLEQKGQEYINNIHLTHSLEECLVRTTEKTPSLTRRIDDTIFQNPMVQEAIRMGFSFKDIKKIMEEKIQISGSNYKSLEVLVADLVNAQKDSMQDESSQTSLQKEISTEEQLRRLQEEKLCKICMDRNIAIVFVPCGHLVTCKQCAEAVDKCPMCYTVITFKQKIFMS
T1 sequence (P42574 29-175 limits assumed): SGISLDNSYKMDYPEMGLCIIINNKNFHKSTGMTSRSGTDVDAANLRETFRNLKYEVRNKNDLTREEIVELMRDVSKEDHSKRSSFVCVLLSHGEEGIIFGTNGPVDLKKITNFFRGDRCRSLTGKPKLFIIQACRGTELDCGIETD
T1 sequence (P42574 176-277 limits assumed): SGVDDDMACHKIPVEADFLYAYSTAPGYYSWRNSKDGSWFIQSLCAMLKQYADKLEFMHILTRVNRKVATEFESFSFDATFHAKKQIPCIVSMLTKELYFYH
XIAP binding to the SMAC peptide, sequence (P98170 whole entry): as the sequence (P98170 whole entry) above

SMILES: CC[C@H](C)[C@H](NC(=O)[C@@H]1CCCN1C(=O)[C@@H](NC(=O)[C@H](C)N)C(C)C)C(=O)N[C@@H](C)C(=O)N[C@@H](CCC(N)=O)C(=O)N[C@@H](CCCCN)C(N)=O [SMAC, H-Ala-Val-Pro-Ile-Ala-Gln-Lys-NH2, reference compound] (H-AVPIAQK-NH2)
- Vmax(mix + casp3) Vmax(casp3) (caspase-3): 0.8 ± 0.0
- Vmax(mis + casp3 + XIAP) Vmax(casp3 + XIAP) (XIAP-inhibited caspase-3; TPI 1239 library, ratio in the presence of XIAP): 3.8 ± 1.7

SMILES: COc1ccc(CCN2CCC[C@@H]2CN(C(=O)Nc2ccccc2)[C@@H](CNC(=O)Nc2ccccc2)CC2CCCCC2)cc1 [TPI 1396-34]
- effect on CTL-mediated lysis [1]: sensitizes tumor targets to CTL-mediated lysis
- effect of XIAP over-expression on apoptosis induction [2]: over-expression of XIAP rendered U937 cells resistant
- tumor growth / tumor size [3]: reduced tumor size
- colony formation [4]: < 5 % of control
- increase of percentage cell death above background [5]: less than one-fold
- effect on cytotoxicity of VP16, DOX and TAXOL [6]: significantly increased dose-dependent cytotoxicity
- toxicity to normal bone marrow cells [7]: little toxicity
- time to half-maximal killing (Jurkat leukemia cells; 10 μM): approximately 12 hours
- time to maximum killing (Jurkat leukemia cells; 10 μM): about 24 hours
- apoptosis with 100 μM zVAD-fmk (Jurkat leukemia cells; 20 hours): suppressible
- apoptosis in HeLa cells over-expressing Bcl-XL (HeLa cells): not blocked
- apoptosis in HeLa cells over-expressing full-length XIAP (HeLa cells): protected
- apoptosis in HeLa cells transfected with a control vector (HeLa cells): induced apoptosis
- caspase activation (Jurkat cells): induced caspase activation
- activity in the derepression assay using full length XIAP (XIAP-inhibited caspase-3): active
- effect on TRAIL-induced apoptosis [8]: sensitized
- tumor size [9]: tumor size was reduced
- competition with XIAP binding to the SMAC peptide [10]: does not compete

SMILES: CCN(CC)c1ccc2c(-c3ccc(S(=O)(=O)NCCCCCC(=O)NCCCC[C@H](NC(=O)[C@@H](Cc4ccc5ccccc5c4)NC(=O)[C@H](Cc4c[nH]c5ccccc45)NC(=O)[C@H](Cc4c[nH]c5ccccc45)NC(=O)[C@H](C)N)C(N)=O)cc3S(=O)(=O)O)c3ccc(=[N+](CC)CC)cc-3oc2c1 [TPI 1566-11] (H-AWW[d2Nal]K([Ahx-X1])-NH2)
- pIC50 (His-BIR2 of XIAP): 5.00

SMILES: CN(CCCCC(CNC(=O)Nc1ccccc1)N(CC1CCCN1CCCCC1CCCCC1)C(=O)Nc1ccccc1)C(=O)Nc1ccccc1 (stereo not shown) [TPI 1396-12]
- stable in human serum (stability in human serum): greater than 48 hours
- average LD50 for the 60 cell lines [11]: 7.6 ± 12 µM
- median LD50 for the 60 cell lines [11]: 6 µM
- caspase activation in tumors in vivo (tumor tissue): induce caspase activation in tumors in vivo
- tumor proliferation (surrogate marker PCNA) (tumor tissue): no effect on tumor proliferation
- % nonviable cells (Jurkat leukemia cells; 1 µM): 15%
- % nonviable cells (Jurkat leukemia cells; 5 µM): 95%
- % nonviable cells (Jurkat leukemia cells; 10 μM): 89%
- % nonviable cells (Jurkat leukemia cells; 25 µM): 89%
- % nonviable cells (Jurkat leukemia cells; 50 µM): 85%
- maximum tolerated dose [12]: 200 to 400 mg/kg
- Activity (relative caspase-3 activity, ratio of Vmax with compound to Vmax of caspase-3 and XIAP controls) (XIAP-inhibited caspase-3; Table X, R2 = L-Proline): 2.7
- activity in the derepression assay using full length XIAP (XIAP-inhibited caspase-3): active
